Measurements from patent US11655247B2, “Nanoluc suicide substrates” (PROMEGA CORPORATION, priority 2018, dated 2023).
Entries after “also recorded” stand apart in the source; their conditions may differ.

Tests used:
[1] = target: T1, NanoLuc (Oplophorus gracilirostris, UniProt Q9GV45, A31E/A60N/A81I/F95D/I117V/K70R/L54V/L99Q/M102K/N193R/P142E/Q151K/Q38R/Q45L/V71I/Y165I); test: Inhibition of NanoLuc luciferase: blocking of furimazine luminescence after pre-incubation; assay type: biochemical; conditions: for Inhibition of NanoLuc (bioluminescence upon later furimazine addition): compound incubated with NanoLuc first, then furimazine (10 μM) added
T1 sequence (Q9GV45 28-196 with tags or gaps with the stated changes limits assumed): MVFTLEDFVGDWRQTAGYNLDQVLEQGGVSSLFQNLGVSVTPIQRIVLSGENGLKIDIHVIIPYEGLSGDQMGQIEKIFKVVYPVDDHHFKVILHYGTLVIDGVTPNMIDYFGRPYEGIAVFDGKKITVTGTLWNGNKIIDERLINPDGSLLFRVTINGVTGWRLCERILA
Method: Compounds were also tested for their ability to block furimazine luminescence with NanoLuc. Typically, NanoLuc (0.4 μg/mL) in DMEM was incubated with either furimazine or test compound (50 μM) while monitoring RLU's with a GloMax® luminometer for 10-60 minutes. After the set time, the plate was removed from the instrument, and a dose of furimazine (10 μM) was added to the well containing the test compound and monitored for 10-60 minutes.
FIGS. 3A-B depicts inhibition of Nluc luciferase by furimazine-h. Furimazine-h (10 μM) was incubated with NanoLuc in NanoGlo or DMEM for 15 or 10 minutes, respectively. This bright signal rapidly degrades to a fraction of the signal observed in the furimazine positive control wells.
FIG. 9 depicts inhibition of Nluc luciferase by furimazine-h. This is a reverse addition experiment as compared to FIG. 3. Furimazine (10 μM) was incubated with NanoLuc in NanoGlo® buffer for 15 minutes.
JRW-0855 and JRW-1088 were incubated with NanoLuc in DMEM for 12 minutes. […] After the incubation period, 10 μM furimazine was added to the well.

[2] = target: NanoBiT™ Binary luciferase (Oplophorus gracilirostris, UniProt Q9GV45, A31E/A60N/A81I/F95D/I117V/K70R/L54V/L99Q/M102K/P142E/Q151K/Q38R/Q45L/V71I/Y165I); test: Inhibition of NanoBiT Binary luciferase (HiBiT + LgBiT); assay type: biochemical
NanoBiT™ Binary luciferase, sequence (Q9GV45 other isoform, or with tags, fused parts or gaps with the stated changes): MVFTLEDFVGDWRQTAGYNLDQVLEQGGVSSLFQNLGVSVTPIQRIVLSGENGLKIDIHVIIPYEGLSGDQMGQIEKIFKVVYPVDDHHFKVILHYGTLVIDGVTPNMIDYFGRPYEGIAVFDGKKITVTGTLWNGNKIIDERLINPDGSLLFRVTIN
Method: Compounds were also tested for their ability to inhibit the NanoBiT™ Binary luciferase. HiBiT (SEQ ID NO: 3) and LgBiT (SEQ ID NO: 4) (two subunits of the NanoBiT™ luciferase) were incubated with furimazine or furimazine-h for 15 minutes. Following the incubation period, 10 μM furimazine was added. […] This signal rapidly degrades to a fraction of the signal observed in the furimazine positive control wells. Addition of furimazine to the furimazine positive control wells results in an increase in bioluminescence.

[3] = target: T1, NanoLuc; assay type: biochemical; conditions: relative value, Furimazine set to 1; NanoLuc; read three minutes after substrate addition
Method: Luminescence Assay Procedure:
Each compound to be screened was dissolved in DMSO (5 mM) and then further diluted to 100 μM in NANO-GLO® Luciferase Assay Buffer. Km values were determined by first serially diluting substrates two-fold into NANO-GLO® Luciferase Assay Buffer. Substrate dilutions were then combined with an equal volume of NanoLuc diluted to 4 ng/ml in TBS+0.01% BSA. Autoluminescence was measured by combining the 100 uM dilution of substrate with TBS+0.01% BSA. Luminescence and autoluminescence values were measured in a GloMax®-Multi+ luminometer three minutes after substrate addition. Signal decay was measured by combining equal volumes of 100 uM of substrate with 4 ng/ml NanoLuc in TBS+0.01% BSA and then samples were read in five minute intervals for two hours using a GloMax®-Multi+. Km was calculated using GraphPad Prism using nonlinear Michaelis-Menten regression. Signal half-life values were calculated using GraphPad Prism Non-linear decay, plateau set to zero.

[4] = Stability in solution noted at preparation; assay type: physicochemical; conditions: note at preparation
[5] = test system: NanoLuc-HaloTag (Nluc-HT); test: Fluorescent labeling of NanoLuc-HaloTag, SDS/PAGE fluorescence imaging; assay type: biochemical; conditions: 0.5 μM protein, 50 μM label, 30 minutes, room temperature
Method: The efficiency of the NanoLuc suicide substrates was compared with a chloroalkane-FAM substrate with a fusion protein in which the HaloTag protein (SEQ ID NO: 5) is fused to either glutathione transferase (GST) or NanoLuc.
Either FAM chloroalkane or coelenterazine FAM substrate was incubated with glutathione transferase-HaloTag (GST-HT) or NanoLuc-HaloTag (Nluc-HT) fusions. The reactions were with 0.5 μM protein (GST-HT or Nluc-HT) and 50 μM of label (100× excess of label) and incubated for 30 minutes at room temperature. The sample titrations of each sample were then loaded to the SDS/PAGE gel. The fluorescence (473ex) (Cy2 filter set) was read and quantified. […] Results are quantified in FIG. 8B.

[6] = test system: NanoLuc-HaloTag fusion protein; test: Direct and two-step labeling with TCO-tetrazine or DBCO-azide pair, fluorescence imaging on SDS/PAGE gel; assay type: biochemical; conditions: for Two-step labeling with tetrazine-FAM (JRW-1577): second step tetrazine-FAM (JRW-1577)
Method: Similar to the previous example, NanoLuc-HaloTag protein was incubated with compounds to either directly label or label via the two-step process with FAM. Compounds were incubated with the NanoLuc-HaloTag fusion protein and analyzed by florescence imaging on SDS/PAGE gel.

SMILES: O=c1c(Cc2ccco2)nc2c(Cc3ccccc3)[nH]c(-c3ccc(O)cc3)cn1-2 [Furimazine-h, 8-benzyl-2-(furan-2-ylmethyl)-6-(4-hydroxyphenyl)imidazo[1,2-a]pyrazin-3(7H)-one, reference compound]
- Inhibition of NanoLuc (bioluminescence upon later furimazine addition) [1]: NanoLuc is inhibited; also recorded: exemplary suicide substrates of NanoLuc
- Inhibition of NanoLuc, reverse addition ([1]; furimazine (10 μM) with NanoLuc in NanoGlo buffer 15 minutes, then compound added): rapid signal decay
- Inhibition of NanoBiT luciferase ([2]; 15 minutes incubation, then 10 μM furimazine added): effectively inhibited
- Initial luminescent signal compared with furimazine ([2]; HiBiT and LgBiT incubated with compound): comparable to that of furimazine
- RLU (at 100 μM) [3]: 1

SMILES: CN(C)c1ccc2c(-c3cc(C(=O)NCCCCCCOc4ccc(Cc5nc6c(Cc7ccccc7)[nH]c(-c7ccc(O)cc7)cn-6c5=O)cc4F)ccc3C(=O)[O-])c3ccc(N(C)C)cc3[o+]c2c1 [JRW-0857, 4-((6-(4-((8-benzyl-6-(4-hydroxyphenyl)-3-oxo-3,7-dihydroimidazo[1,2-a]pyrazin-2-yl)methyl)-2-fluorophenoxy)hexyl)carbamoyl)-2-(3,6-bis(dimethylamino)xanthylium-9-yl)benzoate]
- Inhibition of NanoLuc (bioluminescence upon later furimazine addition) [1]: did not inhibit NanoLuc
- Stability in solution [4]: instability in solution
- RLU (at 100 μM) [3]: 0.00000029

SMILES: O=C(NCCCCCCCCOc1ccc(Cc2nc3c(Cc4ccccc4)[nH]c(-c4ccc(O)cc4)cn-3c2=O)cc1F)c1ccc(C(=O)[O-])c(-c2c3ccc(O)cc3[o+]c3cc(O)ccc23)c1 [JRW-0906, 4-((8-(4-((8-benzyl-6-(4-hydroxyphenyl)-3-oxo-3,7-dihydroimidazo[1,2-a]pyrazin-2-yl)methyl)-2-fluorophenoxy)octyl)carbamoyl)-2-(3,6-dihydroxyxanthylium-9-yl)benzoate]
- Inhibition of NanoLuc (bioluminescence upon later furimazine addition) [1]: exemplary suicide substrates of NanoLuc
- RLU (at 100 μM) [3]: 0.036
- Labeling efficiency relative to the chloroalkane-HT system [5]: ~50%

SMILES: CN(C)c1ccc2c(-c3cc(C(=O)NCCCCCCCCOc4ccc(Cc5nc6c(Cc7ccccc7)[nH]c(-c7ccc(O)cc7)cn-6c5=O)cc4F)ccc3C(=O)[O-])c3ccc(N(C)C)cc3[o+]c2c1 [JRW-0912, 4-((8-(4-((8-benzyl-6-(4-hydroxyphenyl)-3-oxo-3,7-dihydroimidazo[1,2-a]pyrazin-2-yl)methyl)-2-fluorophenoxy)octyl)carbamoyl)-2-(3,6-bis(dimethylamino)xanthylium-9-yl)benzoate]
- Inhibition of NanoLuc (bioluminescence upon later furimazine addition) [1]: did not inhibit NanoLuc
- Stability in solution [4]: instability in solution
- RLU (at 100 μM) [3]: 0.000061

SMILES: CN(C)c1ccc2c(-c3cc(C(=O)NCCOCCOCCC(=O)NCCCCCCCCOc4ccc(Cc5cc6c(Cc7ccccc7)[nH]c(-c7ccc(O)cc7)cn-6c5=O)cc4F)ccc3C(=O)[O-])c3ccc(N(C)C)cc3[o+]c2c1 [JRW-0927, 4-((2-(2-(3-((8-(4-((1-benzyl-3-(4-hydroxyphenyl)-6-oxo-2,6-dihydropyrrolo[1,2-a]pyrazin-7-yl)methyl)-2-fluorophenoxy)octyl)amino)-3-oxopropoxy)ethoxy)ethyl)carbamoyl)-2-(3,6-bis(dimethylamino)xanthylium-9-yl)benzoate]
- Inhibition of NanoLuc (bioluminescence upon later furimazine addition) [1]: did not inhibit NanoLuc
- Stability in solution [4]: instability in solution
- RLU (at 100 μM) [3]: 0.0000024

SMILES: CC(=O)Oc1ccc2c(c1)Oc1cc(OC(C)=O)ccc1C21OC(=O)c2ccc(C(=O)NCCCCCCCCOc3ccc(Cc4nc5c(Cc6ccccc6)[nH]c(-c6ccc(O)cc6)cn-5c4=O)cc3F)cc21 [JRW-0972, 6-((8-(4-((8-benzyl-6-(4-hydroxyphenyl)-3-oxo-3,7-dihydroimidazo[1,2-a]pyrazin-2-yl)methyl)-2-fluorophenoxy)octyl)carbamoyl)-3-oxo-3H-spiro[isobenzofuran-1,9′-xanthene]-3′,6′-diyl diacetate]
- Inhibition of NanoLuc (bioluminescence upon later furimazine addition) [1]: did not inhibit NanoLuc
- Stability in solution [4]: instability in solution
- RLU (at 100 μM) [3]: 0.00005

SMILES: COc1cc2c(c(Cl)c1OC(C)=O)Oc1c(cc(OC)c(OC(C)=O)c1Cl)C21OC(=O)c2ccc(C(=O)NCCCCCCCCOc3ccc(Cc4nc5c(Cc6ccccc6)[nH]c(-c6ccc(O)cc6)cn-5c4=O)cc3F)cc21 [JRW-0986, 6-((8-(4-((8-benzyl-6-(4-hydroxyphenyl)-3-oxo-3,7-dihydroimidazo[1,2-a]pyrazin-2-yl)methyl)-2-fluorophenoxy)octyl)carbamoyl)-4′,5′-dichloro-2′,7′-dimethoxy-3-oxo-3H-spiro[isobenzofuran-1,9′-xanthene]-3′,6′-diyl diacetate]
- Inhibition of NanoLuc (bioluminescence upon later furimazine addition) [1]: did not inhibit NanoLuc
- Stability in solution [4]: instability in solution
- RLU (at 100 μM) [3]: 0.00005

SMILES: [N-]=[N+]=NCCCCCCCCOc1ccc(Cc2nc3c(Cc4ccccc4)[nH]c(-c4ccc(O)cc4)cn-3c2=O)cc1F [JRW-1022, 2-(4-((8-azidooctyl)oxy)-3-fluorobenzyl)-8-benzyl-6-(4-hydroxyphenyl)imidazo[1,2-a]pyrazin-3(7H)-one]
- Two-step labeling with DBCO-FAM ([6]; second step DBCO-FAM): two-step labeling occurs
- Inhibition of NanoLuc (bioluminescence upon later furimazine addition) [1]: partial Nluc inhibitors

SMILES: O=C(CCC(=O)N1Cc2ccccc2C#Cc2ccccc21)NCCCCCCCCOc1ccc(Cc2nc3c(Cc4ccccc4)[nH]c(-c4ccc(O)cc4)cn-3c2=O)cc1F [JRW-1549, N^1-(8-(4-((8-benzyl-6-(4-hydroxyphenyl)-3-oxo-3,7-dihydroimidazo[1,2-a]pyrazin-2-yl)methyl)-2-fluorophenoxy)octyl)-N^4-DBCO-succinamide]
- Two-step labeling with Azide-FAM ([6]; second step Azide-FAM): little to no labeling

SMILES: O=C(NCCCCCCCCOc1ccc(Cc2nc3c(Cc4ccccc4)[nH]c(-c4ccc(O)cc4)cn-3c2=O)cc1F)OC1CC/C=C/CCC1 (stereo not shown) [JRW-1566, (E)-cyclooct-4-en-1-yl (8-(4-((8-benzyl-6-(4-hydroxyphenyl)-3-oxo-3,7-dihydroimidazo[1,2-a]pyrazin-2-yl)methyl)-2-fluorophenoxy)octyl)carbamate]
- Two-step labeling with tetrazine-FAM (JRW-1577) [6]: two-step labeling of NanoLuc

SMILES: O=C(NCCOCCOCCCCCCCl)OC1CC/C=C/CCC1 (stereo not shown) [JRW-1567, (E)-cyclooct-4-en-1-yl (2-(2-((6-chlorohexyl)oxy)ethoxy)ethyl)carbamate]
- Two-step labeling with tetrazine-FAM (JRW-1577) [6]: two-step labeling occurs
